Key:
[1] = Hygroscopicity: water uptake on stepwise increase/decrease of relative humidity; format: physicochemical; conditions: for water uptake: value at end of the one hour storage period
Method: In these experiments humidity was increased/decreased stepwise. Starting at 0% relative humidity every one hour the humidity level was increased by 10% relative humidity. The gain/loss of weight was recorded continuously. The values given represent the value at the end of the one hour storage period at the indicated relative humidity level.
This water is easily lost, e.g. by storage at a relative humidity of 60% or less.

[2] = Storage stability at ambient temperature, measured by HPLC (stability and purity test); format: physicochemical; conditions: samples stored for 4 months at ambient temperature
Method: Stability and Purity Test:
Apparatus: Agilent 11 Series • Column: YMC-Pro C18; 150×4,6 mm, S-5 μm, 120A • Eluent: mobile phase A: 3.884 g of amidosulfonic acid in 1000 g of water; mobile phase B: 3.884 g of amidosulfonic acid in 250 g of water and 588 g of acetonitrile.
Measurement at a wavelength of 220 nm; injection volume 7 μl, oven temperature 40° C., Flow 1.0 ml/min
Sample preparation: approximately 10 mg of a sample of the crystalline form of alogliptin free base are dissolved in 10 ml of acetonitrile and the solution is filled up to 25 ml with water
Run time 20 min • Gradient: […]

In the case of `Cn1c(=O)cc(N2CCC[C@@H](N)C2)n(Cc2ccccc2C#N)c1=O` [2-[6-[3(R)-aminopiperidin-1-yl]-3-methyl-2,4-dioxo-1,2,3,4-tetrahydropyrimidin-1-ylmethyl]-benzonitrile], the “change in crystal structure / formation of a hydrated form” value ([1]; exposed to extremely high relative humidity) is reported as “No change in crystal structure nor the formation of a hydrated form”, the hygroscopicity ([1]; in words) is reported as “low hygroscopicity” and the water uptake ([1]; stored at about 25° C. for 60 min at a relative humidity of 50%) is reported as “about 0.4 % w/w”. For the same compound, the water uptake ([1]; stored at about 90% relative humidity at about 25° C. for 60 min) was “about 1.6 % w/w” and the “degradation (chemical stability)” value [2] was “no degradation”.
